Measured values as given in US7400979B2, “Method of identifying inhibitors of Lck” (Abbott Laboratories, priority 2001, dated 2008).

Assays:
Hck = Hck (Homo sapiens, UniProt P08631); test: ELISA for protein tyrosine kinases adapted to Hck (inhibitor selectivity); assay type: biochemical; settings: result in words; b177 defines selective as IC50 for Lck at least 10-fold lower than for the related protein
Text: The disclosed protocol was adapted for determining activity with respect to a specific protein tyrosine kinase, e.g. Lck. […] Adaptation of these protocols for determining the activity of a compound against other protein tyrosine kinases, for example Hck, are well within the abilities of those skilled in the art. […] The following procedure was used to assay the inhibitory effect of compounds of this invention on Lck protein tyrosine kinase activity: […]

[1] = target: Lck protein tyrosine kinase (Homo sapiens, UniProt P06239); test: Lck inhibition assay: ELISA for protein tyrosine kinases; assay type: biochemical; settings: poly(Glu4Tyr) substrate, 5 μM ATP, 5% DMSO, result in words
Text: The disclosed protocol was adapted for determining activity with respect to a specific protein tyrosine kinase, e.g. Lck. […] Adaptation of these protocols for determining the activity of a compound against other protein tyrosine kinases, for example Hck, are well within the abilities of those skilled in the art. […] The following procedure was used to assay the inhibitory effect of compounds of this invention on Lck protein tyrosine kinase activity:
Store on ice. […] Store on ice.

Chain of Lck protein tyrosine kinase (P06239 whole entry): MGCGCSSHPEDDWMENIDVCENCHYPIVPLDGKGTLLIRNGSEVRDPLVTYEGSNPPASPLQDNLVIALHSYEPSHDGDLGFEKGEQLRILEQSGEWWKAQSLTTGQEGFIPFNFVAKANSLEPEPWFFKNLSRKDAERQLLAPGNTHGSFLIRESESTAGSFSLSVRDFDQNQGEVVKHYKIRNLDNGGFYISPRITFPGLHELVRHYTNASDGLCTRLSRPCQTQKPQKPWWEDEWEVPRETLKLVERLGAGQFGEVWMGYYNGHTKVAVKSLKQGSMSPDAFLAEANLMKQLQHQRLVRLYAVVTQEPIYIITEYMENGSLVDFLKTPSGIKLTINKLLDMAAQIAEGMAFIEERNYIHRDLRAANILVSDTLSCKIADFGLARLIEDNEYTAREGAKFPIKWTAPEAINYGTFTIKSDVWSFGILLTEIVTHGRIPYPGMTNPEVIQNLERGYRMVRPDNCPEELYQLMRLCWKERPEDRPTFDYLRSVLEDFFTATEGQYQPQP
Chain of Hck (P08631 whole entry): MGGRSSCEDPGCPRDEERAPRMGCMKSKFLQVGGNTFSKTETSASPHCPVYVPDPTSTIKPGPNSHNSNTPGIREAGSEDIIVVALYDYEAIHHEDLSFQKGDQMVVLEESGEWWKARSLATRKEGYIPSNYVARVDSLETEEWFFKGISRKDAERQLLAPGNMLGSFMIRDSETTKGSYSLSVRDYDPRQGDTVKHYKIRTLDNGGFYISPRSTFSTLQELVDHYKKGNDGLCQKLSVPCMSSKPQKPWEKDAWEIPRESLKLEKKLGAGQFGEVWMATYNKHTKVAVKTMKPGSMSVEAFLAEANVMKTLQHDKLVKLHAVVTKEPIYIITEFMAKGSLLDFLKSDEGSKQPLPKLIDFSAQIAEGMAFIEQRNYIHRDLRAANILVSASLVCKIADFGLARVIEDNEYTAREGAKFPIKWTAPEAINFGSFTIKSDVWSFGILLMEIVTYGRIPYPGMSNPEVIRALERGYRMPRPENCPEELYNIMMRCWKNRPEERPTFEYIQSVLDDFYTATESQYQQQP

selectivity for Lck over Hck (Hck)	Lck inhibition (in vitro potency) [1]	SMILES
inhibit Lck selectively over Hck	potent inhibitor of Lck	CNCCCN(C)C/C=C/c1[nH]c(=O)c2c(ccc3nc(Nc4c(Cl)cccc4Cl)n(C)c32)c1C [inhibitor 13, 2-(2,6-dichloroanilino)-1,6-dimethyl-7-((E)-3-{methyl[3-(methylamino)propyl]amino}-1-propenyl)-8,9-dihydro-1H-imidazo[4,5-h]isoquinolin-9-one]
	potent inhibitor of human Lck	CN1CCN([C@H]2CC[C@H](n3nc(-c4ccc(Nc5n[nH]c6ccccc56)cc4)c4c(N)ncnc43)CC2)CC1 [inhibitor 15, trans-3-[4-(1H-3-indazolylamino)phenyl]-1-[4-(4-methylpiperazino)cyclohexyl]-1H-pyrazolo[3,4-d]pyrimidin-4-amine]
